Among the test systems are A549 NSCLC; BT-549 breast; HOP-62 NSCLC; HOP-92 NSCLC; HS 578T breast; LOX IMVI melanoma; MDA-MB-435; NCI-H522 lung; SK-MEL-5 melanoma; SW-620 colon.
Holding throughout (test): NCI-60 cell line screen, 48 h

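Cultured in 96-well plates, cells were exposed to test compound for 48 hours across five concentrations. GI50: concentration for 50% inhibition of growth. Definition used: TGI = concentration required for complete inhibition of growth.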

Turning to `CCOC(=O)c1cc(C(=O)c2cc(OC)c(OC)c(OC)c2)n2c1ccc1ccccc12`, the GI50 with A549 NSCLC was 0.286 µM; in the experiment with BT-549 breast, 1.08 µM; with HOP-62 NSCLC, 0.466 µM; with HOP-92 NSCLC, 1.43 µM; in the experiment with HS 578T breast, 0.276 µM; with LOX IMVI melanoma it was 0.669 µM. Also, the GI50 in the experiment with MDA-MB-435 was 0.0367 µM; in the experiment with NCI-H522 lung, 0.131 µM; in the experiment on SK-MEL-5 melanoma it was 0.434 µM; in the experiment on SW-620 colon, 0.157 µM. Also, the TGI is greater than 100 µM in the experiment on A549 NSCLC; greater than 100 µM in the experiment on BT-549 breast; greater than 100 µM with HOP-62 NSCLC; greater than 100 µM in the experiment on HOP-92 NSCLC; greater than 20.6 µM with HS 578T breast; greater than 100 µM with LOX IMVI melanoma. The TGI with MDA-MB-435 is 0.173 µM; with SK-MEL-5 melanoma, greater than 100 µM; with SW-620 colon it was greater than 100 µM.

As for `COc1cccc(/C=N/NC(=O)c2ccccc2N2CCCC2)c1O`, the GI50 in the experiment on A549 NSCLC was 18.8 µM; with BT-549 breast, 12.6 µM; in the experiment on HOP-62 NSCLC it was 3.58 µM; in the experiment on HOP-92 NSCLC, 4.67 µM; in the experiment on HS 578T breast, 10.3 µM; with LOX IMVI melanoma it was 2.54 µM. The GI50 in the experiment on MDA-MB-435 is 18.3 µM; in the experiment on NCI-H522 lung, 2.54 µM; with SK-MEL-5 melanoma, 5.3 µM; in the experiment on SW-620 colon, 4.08 µM. Moreover, the TGI with A549 NSCLC is greater than 100 µM; in the experiment on BT-549 breast, greater than 100 µM; in the experiment on HOP-62 NSCLC, greater than 100 µM; in the experiment with HOP-92 NSCLC, greater than 100 µM; in the experiment with HS 578T breast, 68.8 µM; with LOX IMVI melanoma it was greater than 100 µM. Moreover, the TGI in the experiment with MDA-MB-435 was greater than 100 µM; in the experiment with NCI-H522 lung, greater than 100 µM; with SK-MEL-5 melanoma, 24.4 µM; in the experiment on SW-620 colon, greater than 100 µM.

As for `COc1ccc(Nc2cc(C)nc(NCc3ccccc3)n2)cc1`, the GI50 is 6.53 µM in the experiment with A549 NSCLC; 4.42 µM in the experiment with BT-549 breast; 9.92 µM in the experiment on HOP-62 NSCLC; 1.19 µM with HOP-92 NSCLC; 11 µM in the experiment with HS 578T breast; 2.2 µM in the experiment with LOX IMVI melanoma. The GI50 in the experiment with MDA-MB-435 is 3.16 µM; in the experiment on NCI-H522 lung, 3.62 µM; in the experiment on SK-MEL-5 melanoma, 1.36 µM; with SW-620 colon, 4.2 µM. For the same compound, the TGI in the experiment on A549 NSCLC is 24.7 µM; with BT-549 breast, 17.7 µM; with HOP-62 NSCLC, 24.9 µM; in the experiment with HOP-92 NSCLC, 6.43 µM; in the experiment on HS 578T breast it was 39.2 µM; in the experiment with LOX IMVI melanoma, 6.38 µM. The TGI is 13 µM in the experiment on MDA-MB-435, 19.2 µM in the experiment on NCI-H522 lung, 2.84 µM in the experiment on SK-MEL-5 melanoma and 20 µM in the experiment on SW-620 colon.

For the compound `CCCCCCCCCCCC(=O)N1CCN(C(C)=O)CC1`, the GI50 with A549 NSCLC is 28 µM; in the experiment with BT-549 breast it was 24.6 µM; with HOP-62 NSCLC it was 18.1 µM; in the experiment on HOP-92 NSCLC, 11.5 µM; with HS 578T breast, 21.5 µM; with LOX IMVI melanoma it was 34.4 µM. Moreover, the GI50 is 20.4 µM in the experiment with MDA-MB-435, 17.4 µM in the experiment with NCI-H522 lung, 23.7 µM with SK-MEL-5 melanoma and 25.2 µM in the experiment with SW-620 colon. The TGI with A549 NSCLC was greater than 100 µM; in the experiment with BT-549 breast it was 58.1 µM; with HOP-62 NSCLC, 36.4 µM; with HOP-92 NSCLC, 27.4 µM; in the experiment with HS 578T breast, 48.4 µM; with LOX IMVI melanoma it was greater than 100 µM. Also, the TGI in the experiment on MDA-MB-435 came to 40.9 µM; in the experiment on NCI-H522 lung it was 38.4 µM; with SK-MEL-5 melanoma, 38.9 µM; with SW-620 colon, 46.6 µM.

On to `Cc1ccc(-c2cc3c4c(nc5ccccc53)C(=O)c3cccnc3-c4n2)cc1`, for which the GI50 in the experiment with A549 NSCLC is 4.02 µM; with BT-549 breast it was 17.4 µM; in the experiment with HOP-62 NSCLC, 15.7 µM; in the experiment with HOP-92 NSCLC, 26.5 µM; in the experiment on HS 578T breast, 18.3 µM; in the experiment on LOX IMVI melanoma it was 3.4 µM. The GI50 in the experiment on MDA-MB-435 was 5.08 µM; in the experiment on NCI-H522 lung, 5.55 µM; with SK-MEL-5 melanoma, 1.67 µM; in the experiment with SW-620 colon it was 5.7 µM. Moreover, the TGI in the experiment on A549 NSCLC was 16.2 µM; with BT-549 breast it was 41 µM; with HOP-62 NSCLC, 37.5 µM; in the experiment with HOP-92 NSCLC it was greater than 100 µM; in the experiment on HS 578T breast, 43.8 µM; in the experiment with LOX IMVI melanoma, 14.5 µM. Moreover, the TGI is 16 µM in the experiment with MDA-MB-435, 21.9 µM with NCI-H522 lung, 3.89 µM with SK-MEL-5 melanoma and greater than 51.1 µM with SW-620 colon.

For `CN1CCC2(CC1)NC(=O)c1c(c3ccc(Cl)c(Cl)c3n1C)C2C#N` (centres undefined), the GI50 in the experiment on A549 NSCLC was 7.33 µM; in the experiment with BT-549 breast it was 2.62 µM; in the experiment on HOP-62 NSCLC, 9.72 µM; with HOP-92 NSCLC it was 2.52 µM; with HS 578T breast, 7.63 µM; with LOX IMVI melanoma, 4.71 µM. The GI50 in the experiment with MDA-MB-435 was 2.29 µM; in the experiment on NCI-H522 lung, 15.2 µM; with SK-MEL-5 melanoma it was 2.11 µM; with SW-620 colon, 8.48 µM. Moreover, the TGI with A549 NSCLC was 24.6 µM; in the experiment on BT-549 breast, 12.5 µM; with HOP-62 NSCLC, 23.2 µM; in the experiment with HOP-92 NSCLC it was 19.6 µM; in the experiment on HS 578T breast it was 45.6 µM; with LOX IMVI melanoma it was 18.1 µM. The TGI with MDA-MB-435 was 6.58 µM; in the experiment with NCI-H522 lung, 44.8 µM; in the experiment with SK-MEL-5 melanoma, 5.18 µM; in the experiment on SW-620 colon, 33.3 µM.

On to `C#CCN(Cc1nc2cc(C(F)(F)F)ccc2nc1-c1ccccc1)c1ccc(C)cc1`, for which the GI50 is 9.23 µM with A549 NSCLC; 22.2 µM in the experiment with BT-549 breast; 4.41 µM in the experiment with HOP-62 NSCLC; 31.7 µM in the experiment with HOP-92 NSCLC; 10.2 µM in the experiment on HS 578T breast; 24.8 µM in the experiment on LOX IMVI melanoma. Further, the GI50 was 2.73 µM with MDA-MB-435, 3.3 µM in the experiment on NCI-H522 lung, 17 µM in the experiment on SK-MEL-5 melanoma and 12.8 µM in the experiment with SW-620 colon. The TGI was greater than 93 µM in the experiment on A549 NSCLC; 69.9 µM in the experiment with BT-549 breast; 33.9 µM in the experiment on HOP-62 NSCLC; greater than 84.8 µM in the experiment on HOP-92 NSCLC; greater than 54.4 µM in the experiment with HS 578T breast; greater than 48.5 µM in the experiment with LOX IMVI melanoma. The TGI in the experiment on MDA-MB-435 was 9.09 µM; with NCI-H522 lung, 26 µM; in the experiment with SK-MEL-5 melanoma, greater than 32.4 µM; with SW-620 colon it was greater than 100 µM.
